Source: paper PMC9321663, “The DevTox Germ Layer Reporter Platform: An Assay Adaptation of the Human Pluripotent Stem Cell Test” (Toxics, 2022)
Like-named read-outs stand apart in the source and are kept apart here.

What was measured:
RUES2-GLR cells = assay: DevTox GLR-Endo assay: decrease in total cell count, cytotoxicity (AEID 3098, CellCount_dn); conditions: for Emax: Homo sapiens, read-out: Cell Count % Max Inhibition
Protocol: (§1) The total test chemical incubation period was 48 h.
(§2) Assay plate controls included non-differentiated pluripotent cells maintained in complete Essential 8 Flex medium (baseline control), endoderm differentiated cells (differentiation control), endoderm differentiated cells treated with DMSO (0.2%) (solvent control), and TGF-ß receptor inhibitor SB431542 (1 µM)-treated cells (developmental toxicant-positive control) (Figure S3). All experiments were completed with a minimum of four biological replicates (n = 4).
(§3) (Supplementary Materials).

[1] = test system: SOX17 (endoderm marker) in RUES2-GLR cells; assay: DevTox GLR-Endo assay: decrease in percent SOX17-positive cells (AEID 3094, Sox17_dn); conditions: for Emax / AC50: Homo sapiens; for DevTox-GLR Endo ACC: activity concentration at cutoff, SOX17-positive cells
Protocol: as §1, §2, §3

[2] = test system: BRA (mesoderm marker) in RUES2-GLR cells; assay: DevTox GLR-Endo assay: increase in percent BRA-positive cells (AEID 3096, Bra_up); type: cell-based, human; parameters: tp (winning model): unit not given here
Protocol: as §1, §3

[3] = test system: SOX2 (ectoderm and pluripotency marker) in RUES2-GLR cells; assay: DevTox GLR-Endo assay: increase in percent SOX2-positive cells (AEID 3095, Sox2_up); conditions: for AC50 / Emax: Homo sapiens; for AC50: read-out: ga (winning model); for Emax: read-out: tp (winning model);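 as to all read-outs here: cells exposed to test chemicals for 48 h in total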
[4] = test system: SOX17 (endoderm marker) in RUES2-GLR cells; assay: DevTox GLR-Endo assay: increase in percent SOX17-positive cells (AEID 3093, Sox17_up); type: cell-based, human; conditions: for Emax: Homo sapiens
Protocol: as §1, §3

[5] = cited from earlier work; for Classification: developmental toxicant classification (Teratogen / Non-Teratogen) of reference and training chemicals, ref DOI per chemical: 10.1093/toxsci/kft239, 10.1093/toxsci/kfaa014, 10.1177/026119290203000204, 10.1038/s41598-020-59542-x; for Development Toxicant Classification: Table S2; for DT Class.: developmental toxicant classification, chemicals common with quickPredict
[6] = Table S2, SOX17-positive cells, cutoff 3*bmad
[7] = Table S2, percent SOX17-positive cells, 48 h exposure
[8] = tcpl plot AEID3096, maximum mean response
[9] = tcpl plot AEID3096, maximum median response
[10] = tcpl plot AEID3095, maximum mean response
[11] = tcpl plot AEID3095, maximum median response
[12] = read-out: DevTox % Max Inhibition
[13] = tcpl plot AEID3093, maximum mean response, read-out: MAX_MEAN
[14] = tcpl plot AEID3093, maximum median response, read-out: MAX_MED
[15] = read-out: ga (winning model), tcpl plot AEID3094, gain parameter of winning curve fit (log concentration, µM axis), hit calls only (converted)
[16] = DevTox GLR-Endo prediction against developmental toxicant classification
[17] = read-out: maximum observed effect level class (% max inhibition)

Row | Compound | Hit Call [1, 6] | DevTox ACC [1, 7] | HIT−CALL ([1]; tcpl plot AEID3094, COFF 20.3) | HIT−CALL ([2]; tcpl plot AEID3096, COFF 0.774) | MAX_MEAN [2, 8] | MAX_MED [2, 9] | MAX_MEAN [3, 10] | MAX_MED [3, 11] | HIT−CALL ([4]; tcpl plot AEID3093, COFF 20.3) | Classification [5] | Emax (RUES2-GLR cells) | Emax [1, 12] | Emax ([1]; read-out: MAX_MEAN) | Emax ([1]; read-out: MAX_MED) | Emax [4, 13] | Emax [4, 14] | Cell Count ACC (RUES2-GLR cells; human, 48 h) | Emax ([1]; read-out: tp (winning model)) | AC50 [3] | Emax [3] | further results
1 | C=CC(N)=O [Acrylamide] | Negative | >200 µM | 0 | 1 | 1.03 Percent Activity | 1.06 Percent Activity | 0.47 Percent Activity | 0.417 Percent Activity | 0 |  |  |  |  |  |  |  |  |  |  |  | Cell Count % Max Inhibition (RUES2-GLR cells; Table S2, cell count relative to DMSO): 16.9643%; DevTox % Max Inhibition ([1]; Table S2, percent SOX17-positive cells relative to DMSO): 9.423%; MAX_MEAN ([1]; tcpl plot AEID3094, maximum mean response): 8.79 Percent Activity; MAX_MED ([1]; tcpl plot AEID3094, maximum median response): 9.42 Percent Activity; ga (winning model) ([2]; tcpl plot AEID3096, gain parameter of winning curve fit (log concentration, µM axis), hit calls only): −6.98; tp (winning model) ([2]; tcpl plot AEID3096, top of winning curve fit, hit calls only): 0.908; MAX_MEAN ([4]; tcpl plot AEID3093, maximum mean response): 6.64 Percent Activity; MAX_MED ([4]; tcpl plot AEID3093, maximum median response): 7.31 Percent Activity
2 | NC(=O)c1ccc(-c2nc(-c3ccc4c(c3)OCO4)c(-c3ccccn3)[nH]2)cc1 [SB431542] |  |  |  |  |  |  |  |  |  |  |  |  |  |  |  |  |  |  |  |  | effect on SOX2 and SOX17 expression (in words) ([1]; 1 µM positive control, 48 h endoderm induction): loss of both SOX2 and SOX17
3 | Oc1cc(O)c2c(c1)OC(c1ccc(O)c(O)c1)C(O)C2 (centres unmarked) [Cianidanol (Catechin)] |  |  |  |  |  |  |  |  |  | Non-Teratogen |  |  |  |  |  |  |  |  |  |  | 
4 | COC(=O)c1ccccc1C(=O)OC [Dimethyl Phthalate] | Negative | >200 µM | 0 | 0 | 0.821 Percent Activity | 0.835 Percent Activity | 1.15 Percent Activity | 0.556 Percent Activity | 0 |  | 11.9% | 6.7% | 7.41% | 6.7% | 6.35% | 7.43% |  |  |  |  | Cell Count ACC (RUES2-GLR cells; Table S2, 48 h exposure): >200 µM; HIT−CALL [3]: 0
5 | OCCO [Ethylene Glycol] |  |  |  |  |  |  |  |  |  |  |  |  |  |  |  |  |  |  |  |  | Cell Count % Max Inhibition (RUES2-GLR cells): 7.044%; Cell Count ACC (RUES2-GLR cells): >200 µM; DevTox % Max Inhibition [1]: 6.931%; DevTox ACC [1]: >200 µM; HIT−CALL [1]: 0; Hit Call [1]: Negative; MAX_MEAN [1]: 6.33; MAX_MED [1]: 6.93; hit call designation (in words) [1]: false negative; maximum observed effect level class (% max inhibition) [1]: weak (key: high (80–100% max inhibition); moderate (20–80% max inhibition); weak (0–20% max inhibition)); HIT−CALL [2]: 0; MAX_MEAN [2]: 0.895; MAX_MED [2]: 0.908; HIT−CALL [3]: 0; MAX_MEAN [3]: 1.02; MAX_MED [3]: 0.539; HIT−CALL [4]: 0; MAX_MEAN [4]: 15.9; MAX_MED [4]: 16.8
6 | Cc1ccc(NC(=O)c2ccc(CN3CCN(C)CC3)cc2)cc1Nc1nccc(-c2cccnc2)n1 [Imatinib] | Positive |  | 1 |  |  |  | 6.74 Percent Activity | 6.89 Percent Activity | 0 |  | 97.8% | 101% | 101% | 101% | 7.83% | 8.88% | 9.465 µM | 101% | 14.1 µM | 6.56% | 
7 | O=C(O)c1cc(/N=N/c2ccc(S(=O)(=O)Nc3ccccn3)cc2)ccc1O [Sulfasalazine] | Negative | >200 µM | 0 | 0 | 0.92 Percent Activity | 0.948 Percent Activity | 1.38 Percent Activity | 0.57 Percent Activity | 0 |  | 8.86% | 11.8% | 9.93% | 11.8% | 8.6% | 8.79% | >200 µM |  |  |  | 
8 | CC(=O)CC(c1ccccc1)c1c(O)c2ccccc2oc1=O (centres unmarked) [Warfarin] | Positive | 93.3273 µM | 1 | 1 | 0.949 Percent Activity | 0.975 Percent Activity | 0.566 Percent Activity | 0.495 Percent Activity | 0 |  | 19.1% | 26.9% | 26.8% | 26.9% | 11.3% | 11.6% |  | 26.8% |  |  | Cell Count ACC (RUES2-GLR cells; Table S2, 48 h exposure): 197.749 µM; DevTox-GLR Endo CC (RUES2-GLR cells; concentration at cell count cutoff, 48 h exposure): 197.75 µM; AC50 [1, 15]: 81.3 µM; DevTox-GLR Endo ACC ([1]; 48 h exposure): 93.33 µM
9 | CC1=C(/C=C/C(C)=C/C=C/C(C)=C/CO)C(C)(C)CCC1 [Retinol] | Positive | 13.0451 µM | 1 |  |  |  | 23.5 Percent Activity | 25.3 Percent Activity | 0 | Non-Teratogen | 97.3% | 94.5% | 94.3% | 94.5% | 1.1% | 1.06% | 12.6287 µM | 117% | 46.8 µM | 26% | DevTox-GLR Endo CC (RUES2-GLR cells; human, 48 h): 12.63 µM; hit call designation (in words) [1, 16]: false positive; AC50 [1, 15]: 33.9 µM; Emax [1, 17]: 80 to 100%; DevTox-GLR Endo ACC ([1]; 48 h exposure): 13.05 µM; Development Toxicant Classification [5]: Negative; DT Class. [5]: Neg
10 | CCCCOC(=O)c1ccc(O)cc1 [Butylparaben, 4−Hydroxybenzoic acid butyl ester] | Positive | 34.4685 µM | 1 |  |  |  | 4.14 Percent Activity | 4.42 Percent Activity | 0 | Non-Teratogen | 91.8% | 102% | 101% | 102% | 8.67% | 10.2% |  | 102% | 115 µM | 6.25% | hit call designation (in words) [1, 16]: false positive; AC50 ([1]; read-out: ga (winning model)): 50.1 µM; Emax [1, 17]: 80 to 100%; DevTox-GLR Endo ACC ([1]; 48 h exposure): 34.47 µM; Development Toxicant Classification [5]: Negative; DT Class. [5]: Neg
